Article PMC11596957, “Biological Characteristics of a Novel Bibenzyl Synthase (DoBS1) Gene from Dendrobium officinale Catalyzing Dihydroresveratrol Synthesis” (Molecules, 2024)

Molecular target: T1, DoBS1 (bibenzyl synthase) (Dendrobium officinale, UniProt Z9NEY1S5B3)
T1 construct: type III PKS family known as homodimer
T1 sequence (Z9NEY1S5B3 1-390): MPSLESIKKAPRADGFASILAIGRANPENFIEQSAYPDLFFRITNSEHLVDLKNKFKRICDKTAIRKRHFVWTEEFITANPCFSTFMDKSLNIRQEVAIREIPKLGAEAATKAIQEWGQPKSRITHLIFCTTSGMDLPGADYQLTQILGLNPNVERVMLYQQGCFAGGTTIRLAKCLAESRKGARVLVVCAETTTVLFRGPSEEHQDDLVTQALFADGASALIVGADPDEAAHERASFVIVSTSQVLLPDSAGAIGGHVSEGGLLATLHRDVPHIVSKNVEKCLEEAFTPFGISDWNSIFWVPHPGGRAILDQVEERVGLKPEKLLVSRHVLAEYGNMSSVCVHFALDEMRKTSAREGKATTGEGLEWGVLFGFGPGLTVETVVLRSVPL
Experiment: HPLC of dihydroresveratrol formation, Michaelis-Menten fit
Type: biochemical
Settings: co-substrate malonyl-CoA (2.5 mM in the described assay), 37 °C, 30 min; text gives the Km 'for DHR' production, Figure 7 legend names p-coumaroyl-CoA as varied substrate; unit printed as mmol
Text: HPLC of dihydroresveratrol formation, Michaelis-Menten fit on DoBS1 (bibenzyl synthase) | Kinetic analysis of DoBS1 toward p-coumaroyl-CoA

Km: 0.30 ± 0.08 mmol
SMILES: CC(C)(COP(=O)(O)OP(=O)(O)OC[C@H]1O[C@@H](n2cnc3c(N)ncnc32)[C@H](O)[C@@H]1OP(=O)(O)O)[C@@H](O)C(=O)NCCC(=O)NCCSC(=O)/C=C/c1ccc(O)cc1 [p-coumaroyl-CoA]
